Measured values from US10517889B2, “Modulators of SMAD7 expression” (Ionis Pharmaceuticals, Inc., priority 2017, dated 2019).
Strand notation (5' to 3'): a small letter for the sugar, then the base; units joined by * are phosphorothioate-linked, units joined directly phosphodiester-linked; [ ] holds rarer units or linkages, { } end groups; capitals alone tell only the bases. e = 2'-O-(2-methoxyethyl) (MOE); [5mC] = 5-methylcytosine; d = 2'-deoxy (DNA)

Tests used:
human SMAD7 mRNA [1] = test: Antisense inhibition of human SMAD7 mRNA expression in Hep3B cells by 5-10-5 MOE gapmers, single concentration, electroporation, RT-PCR (Example 1, Study 1 and 2); type: cell-based; conditions: for % Inhibition of SMAD7 mRNA: electroporation with 15,000 nM antisense oligonucleotide (Study 2)
Method in brief: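 Readout is percent SMAD7 mRNA inhibition versus untreated cells, measured by qRT-PCR (RTS5062) and corrected for total RNA by RIBOGREEN. Oligonucleotide, 5,000 nM or 15,000 nM, was delivered by electroporation into Hep3B cells at 20,000 per well. RNA was collected about 24 h later.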

human SMAD7 mRNA [2] = test: Dose-dependent inhibition of human SMAD7 mRNA expression in Hep3B cells (Example 3, Study 1 and 2); type: cell-based; conditions: electroporation; for % inhibition of SMAD7 mRNA expression: approximately 16 hours; for IC50: Study 1 (312.5-20000 nM)
Method in brief: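 Hep3B cells, 20,000 per well, electroporated with antisense oligonucleotide at 0.31, 1.25, 5.00 or 20.00 μM (first series) or 0.74, 2.22, 6.67 or 20.00 μM (second series). After ~16 h, SMAD7 mRNA measured by RT-qPCR (RTS5062), normalised to RIBOGREEN total RNA. Percent inhibition vs untreated cells; IC50 derived.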

[3] = electroporation, 15,000 nM antisense oligonucleotide (Study 2), 5-10-5 MOE gapmers targeting SEQ ID NO: 1 and 2
[4] = 312.5 nM, Study 1, relative to untreated control cells
[5] = Study 2, electroporation with 15,000 nM antisense oligonucleotide, 5-10-5 MOE gapmers targeting SEQ ID NO: 1 and 2
[6] = 5-10-5 MOE gapmers targeting SEQ ID NO: 1 and 2

Substance | % inhibition of SMAD7 mRNA expression (human SMAD7 mRNA [1]; [3]) [%] | % inhibition of SMAD7 mRNA expression (human SMAD7 mRNA [2]; [4]) [%] | % inhibition of SMAD7 mRNA expression (human SMAD7 mRNA [2]; 1250.0 nM, Study 1) [%] | % inhibition of SMAD7 mRNA expression (human SMAD7 mRNA [2]; 5000.0 nM, Study 1) [%] | % inhibition of SMAD7 mRNA expression (human SMAD7 mRNA [2]; 20000.0 nM, Study 1) [%] | IC50 (human SMAD7 mRNA [2]) [µM] | % Inhibition (human SMAD7 mRNA [1]; [5]) [%] | % Inhibition of SMAD7 mRNA (human SMAD7 mRNA [1]; [6]) [%] | % inhibition of SMAD7 mRNA expression (human SMAD7 mRNA [1]; electroporation, 5,000 nM, approximately 24 hours, relative to untreated control cells, gapmers targeting SEQ ID NO: 1 and 2) [%] | % inhibition of SMAD7 mRNA expression (human SMAD7 mRNA [1]; electroporation, 15,000 nM, approximately 24 hours, relative to untreated control cells, gapmers targeting SEQ ID NO: 1 and 2) [%] | % inhibition of SMAD7 mRNA expression (human SMAD7 mRNA [1]; [5]) [%]
771849 (antisense e[5mC]*eT*eA*eG*eG*d[5mC]*dT*dG*dG*dT*d[5mC]*dA*d[5mC]*dT*dT*e[5mC]*e[5mC]*eA*e[5mC]*eT) [compound 771849] | 66 | 25 | 0 | 10 | 35 | > 20 |  |  |  |  | 
483663 (antisense e[5mC]*eA*eG*e[5mC]*e[5mC]*dT*d[5mC]*dT*dT*dG*dA*d[5mC]*dT*dT*d[5mC]*e[5mC]*eG*eA*eG*eG) [compound 483663] | 41 | 0 | 0 | 14 | 27 | > 20 | 56 | 35 | 47 | 49 | 
771794 (antisense eG*eA*eA*eG*e[5mC]*dA*dA*dG*dT*d[5mC]*dA*d[5mC]*dT*dG*d[5mC]*e[5mC]*eT*eT*e[5mC]*eT) [compound 771794] | 68 | 0 | 0 | 27 | 41 | > 20 |  |  |  |  | 
771732 (antisense eG*eT*e[5mC]*eA*eT*dG*dT*dG*dA*dA*d[5mC]*dA*d[5mC]*dT*d[5mC]*eT*eT*eT*e[5mC]*eA) [compound 771732] |  | 35 | 24 | 39 | 58 | 15 | 36 |  |  |  | 
771487 (antisense e[5mC]*eT*eG*e[5mC]*eA*d[5mC]*dG*dG*dT*dA*dA*dA*dG*d[5mC]*d[5mC]*e[5mC]*eG*eT*e[5mC]*e[5mC]) [compound 771487] |  | 4 | 0 | 7 | 26 | > 20 |  |  |  |  | 45
771704 (antisense e[5mC]*eA*eG*eG*eA*dG*dG*dG*dT*dA*dT*dG*d[5mC]*dA*d[5mC]*eA*e[5mC]*eT*e[5mC]*eT) [compound 771704] | 32 | 14 | 19 | 30 | 54 | > 20 |  | 55 |  |  | 
771900 (antisense eA*eT*eG*e[5mC]*e[5mC]*d[5mC]*dA*d[5mC]*d[5mC]*dA*dG*dT*d[5mC]*dT*dT*e[5mC]*e[5mC]*eT*eG*eA) [compound 771900] |  | 0 | 11 | 8 | 29 | > 20 | 32 |  |  |  | 
